In paper PMC9585082, “Structural insight into the ligand binding mechanism of aryl hydrocarbon receptor” (Nature Communications, 2022):
pKd: −log10 of the molar value.

Columns and labels:
dAHR PAS-B = biological target: T1, dAHR PAS-B (Drosophila melanogaster, UniProt O61543, M284C/Y336L); assay: label-free MST; type: binding
T1 construct: gene ss; PAS-B domain (residues 264–381)

mAHR = biological target: T2, mAHR (Mus musculus, UniProt P30561); assay: DRE luciferase reporter assay in HEK293T expressing mAHR (agonist at […]); type: cell-based
T2 construct: gene Ahr; full-length
T2 sequence (P30561 10-848): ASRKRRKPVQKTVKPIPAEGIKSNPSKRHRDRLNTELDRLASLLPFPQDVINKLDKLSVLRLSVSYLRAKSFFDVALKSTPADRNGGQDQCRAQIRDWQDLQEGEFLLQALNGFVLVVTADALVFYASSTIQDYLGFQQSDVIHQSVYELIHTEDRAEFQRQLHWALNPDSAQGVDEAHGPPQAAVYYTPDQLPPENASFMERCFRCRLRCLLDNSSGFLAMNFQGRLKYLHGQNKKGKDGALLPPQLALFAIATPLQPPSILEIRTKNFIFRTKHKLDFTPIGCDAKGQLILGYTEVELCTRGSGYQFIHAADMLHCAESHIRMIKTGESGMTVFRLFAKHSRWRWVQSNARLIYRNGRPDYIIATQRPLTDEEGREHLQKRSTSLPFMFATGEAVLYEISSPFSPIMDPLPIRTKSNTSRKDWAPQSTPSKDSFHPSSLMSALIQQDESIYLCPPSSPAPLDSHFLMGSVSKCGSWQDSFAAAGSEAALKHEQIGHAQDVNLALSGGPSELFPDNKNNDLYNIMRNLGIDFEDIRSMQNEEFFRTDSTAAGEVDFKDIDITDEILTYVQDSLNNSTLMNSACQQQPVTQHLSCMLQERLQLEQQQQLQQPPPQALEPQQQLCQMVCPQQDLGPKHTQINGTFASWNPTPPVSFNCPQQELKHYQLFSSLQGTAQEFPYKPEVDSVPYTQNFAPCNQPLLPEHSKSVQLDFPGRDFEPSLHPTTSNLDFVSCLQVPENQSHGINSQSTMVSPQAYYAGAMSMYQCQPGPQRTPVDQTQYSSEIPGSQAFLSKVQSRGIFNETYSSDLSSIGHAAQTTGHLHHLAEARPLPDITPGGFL
Excerpt: FICZ, βNF and BaP were supplied

T1 sequence (O61543 entry or part of it M284C/Y336L): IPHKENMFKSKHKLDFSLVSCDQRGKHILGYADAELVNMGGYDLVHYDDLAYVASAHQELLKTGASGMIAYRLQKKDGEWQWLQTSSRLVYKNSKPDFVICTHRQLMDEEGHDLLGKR

Row | SMILES | pKd (dAHR PAS-B) | DRE luciferase reporter assay in HEK293T expressing mAHR (agonist at 200 nM) (mAHR) | DRE luciferase reporter assay in HEK293T expressing mAHR (agonist at 500 nM) (mAHR)
1 | O=Cc1c2[nH]c3ccccc3c2cc2[nH]c3ccccc3c12 [FICZ] | ~6.10 | transactivation of mAHR in HEK293T cells in the presence or absence of agonists. FICZ, βNF and BaP were supplied | –
2 | O=c1cc(-c2ccccc2)oc2ccc3ccccc3c12 [βNF] | ~6.40 | – | transactivation of mAHR in HEK293T cells in the presence or absence of agonists. FICZ, βNF and BaP were supplied
3 | c1ccc2c(c1)cc1ccc3cccc4ccc2c1c34 [BaP] | – | transactivation of mAHR in HEK293T cells in the presence or absence of agonists. FICZ, βNF and BaP were supplied | –
